Assay results taken from patent US8410170B2, “Use of isothiocyanates compounds in treating prostatic diseases and skin cancer” (Wuxi JC Pharmaceutical Technology Co., Ltd., priority 2005, dated 2013).
Structures can show the parent of a compound that is named as a salt.

What was measured:
[1] = test system: xenograft B16 mouse tumor; conditions: CTX 20 mg/kg/d i.p., 15 days
Procedure: The B16 mouse melanoma cells at exponential growth phase were suspended in PBS. […] Adjusted the suspension to a cell concentration of approximately 1×10^7/ml. 0.2 ml of the suspension were transplanted subcutaneously into right axillary subcutis for passaging.
Under sterile condition the xenograft B16 mouse tumor in mice was stripped from axillary subcutis. After cutting by scissors, the tumor with saline (1:3) was ground in a glass homogenizer. Monocell suspension was made with saline. […] Then adjusted the suspension to a cell density of approximately 1×10^7/ml with saline. 0.2 ml were transplanted subcutaneously into right axillary subcutis of each mouse. After transplanting, randomly divided the mouse into 5 groups, 12 each.
Tumors were taken out, sizes and weights were measured, and the percent of inhibitions were calculated.

[2] = test system: non-bacterial prostatitis; assay: Therapeutic effects on non-bacterial prostatitis (Xiaozhiling injection into prostate); format: in vivo, SD rats; set-up: Histopathological score of prostatitis, Overall Average X ± SD: scale not given here
Procedure: Fifty-five male SD rats were randomly divided into 6 groups, 9 each, except the negative control group for which 10 animals were used. All animals from group 1 to 6 were anesthetized by injection of ketamine under sterile conditions and incised around 1.5 cm with a sterilized surgery scalpel at middle of abdomen. Animals in Group 1 were injected penicillin to prevent infection, and given distill water, 10 ml/kg, once a day, 5 times a week for 5 weeks. Groups from 2 to 6 injected 25% Xiaozhiling into left and right lobes of prostate, 0.1 ml for each lobe and sew the muscle and skin with #1 silk thread. The animals were then given penicillin to prevent infectious. Group 2 was served as negative control group in which animals were treated with distill water by gavage 24 hrs after the Xiaozhiling injection, once a day, 5 times a week for 5 weeks. Group 3 was served as positive control group in which animals were treated with GENURIN by gavage 24 hrs after the Xiaozhiling injection at dose of 60 mg/kg, once a day, 5 times a week (escaping weekend) for 5 weeks. […] On the last dosing day, urine samples from different groups that covered periods of 1, 2 and 3 hrs were collected.
Twenty-four hrs after the last dose, the animals were euthanized and weighed. Volume and weight of prostate were measured. The averages of the prostate weight/volume and organ coefficient (average weight of prostate/average of body weight) were calculated, and statistical analysis performed (t test).
(§1) Prostate tissues of animals from different groups were embedded with paraffin. The tissue sections were stained with H&E for histpathological examination by an anatomical pathologist.

GSTP1 = assay: Western blot to detect GSTP1 protein in LNCaP cells; format: cell-based, human; conditions: LNCaP cells exposed 24 hrs
Procedure: Western blot to detect GSTP1 protein (FIG. 1): […] The cells were harvested, washed and total cellular proteins were extracted as described previously (Wang, […], et al. […] Cancer Res 61(20): 7544-51, 2001). Fifty μg cellular extracts were separated on a SDS-PAGE, electro-transferred to nitrocellulose filters, and immunoblotted initially with antibodies against GSTP1. The same membranes were stripped and re-probed with β-actin for loading control. The result was recorded by ECL films.

[3] = test system: human androgen independent prostate cancer PC-3 cells; assay: Xenograft of PC-3 in nude mice; format: in vivo, BALB/c nude mice; conditions: for Inhibition of PC-3 tumor growth: at terminal, diet containing 8 μM/g for 30 days
Description: Immunodeficient BALB/c nude mice, male, 5 weeks old, were purchased from Animal Center, Chinese Academy of Sciences, Shanghai, China. The animals were housed in an SPF animal lab. Human androgen independent prostate cancer PC-3 cells, in the form of a pellet (approximately 1×10^6 cells per animal), were mixed with a 50% volume of Matrigel and implanted s.c. in the flank of the animal. Twenty-four hrs after the transplant, the mice were randomly divided into two groups, eight animal each. One group served as untreated control and fed with regular AIN76 diet, and another one as treatment group in which AIN76 diet containing 8 μM/g of PEITC-NAC was provided. The animals were treated for 30 days, and tumor incidence and size were measured at day 7, 10, 22. Twenty-four hrs after the last administration, animals were euthanized, and body and tumors were weighted. Western blot was used to follow the possible change of AR expression.

androgen-induced BPH = assay: Therapeutic effects on BPH: Test Two (castrated rats, testosterone propionate; weights and histopathology); format: in vivo, SD rats; set-up: Histopathological score of BPH, Average X ± SD: scale not given here
Procedure: Thirty-six male SD rats were randomly divided into 4 groups, nine each. Group 1 was served as blank control group (pseudo-surgery control group) in which animals were under the same surgical procedures except no testis was sectioned and fed normally. Groups from 2 to 4 were served as treatment groups in which all animals were anesthetized using ketamine and castrated by removing both testises under sterile conditions. After the surgery, the penicillin was injected to prevent the animals from infection. One week later, the testosterone propionate was injected subcutaneously at dose of 5 mg/kg, once a day for a month. […] Group 3 was served as positive control group in which animals were given Proscar by gavage at dose of 0.1 mg/rat/day for a month beginning on the same day that the testosterone propionate was injected.
Twenty-four hrs after the last dose, the animals were euthanized and weighed. Volume and weight of prostate were measured. The averages of prostate volume/weight and organ coefficient (average weight of prostate/average of body weight) were calculated, and statistical analysis performed (t test).
as §1

BPH = assay: Therapeutic effects on BPH: Test One (castrated rats, testosterone propionate); format: in vivo, SD rats; conditions: estradiol 0.1 mg/rat s.c., one month
Procedure: Sixty male SD rats were randomly divided into 6 groups, ten each. The animals were anesthetized using ketamine and castrated by removing testis under sterile conditions. After the surgery, the penicillin was injected to prevent the animals from infection. One week later, the testosterone propionate was injected subcutaneously at dose of 1 mg/rat for a month, once a day. Group 1 was served as a negative control group, and the animals of group 1 were given saline orally without any active pharmaceutical ingredient for a month beginning on the same day the testosterone propionate was injected. Group 2 was served as positive control group in which animals were given estradiol subcutaneously at a dose of 0.1 mg/rat for a month beginning on the same day the testosterone propionate was injected. Groups from 3 to 6 was served as drug treatment groups in which animals were given tested articles on the same day the testosterone propionate was injected.
Twenty-four hrs after the last dosage, the animals were euthanized and weighed. Volume and weight of prostate were measured. The averages of volume/weight and organ coefficient (average weight of prostate/average of body weight) were calculated, and statistical analysis performed (t test).

[4] = GENURIN 60 mg/kg gavage, 5 weeks
[5] = GENURIN 60 mg/kg, last dosing day
[6] = Proscar 0.5 mg/kg gavage, one month

## O=P1(N(CCCl)CCCl)NCCCO1 (centres unmarked) [CTX, Cyclophosphamide, reference compound]
[1]
  Average of Tumor Weight: 0.76 ± 0.41 g
  Changes in Body Weight: 5.07 ± 2.64 g
  Inhibition: 66.23%

## Cc1c(-c2ccccc2)oc2c(C(=O)OCCN3CCCCC3)cccc2c1=O [GENURIN, Flavoxate Hydrochloride, reference compound]
[2]; [4]
  Average Volume of Prostate: 0.69 ± 0.10 cm^3
  Average Weight of Prostate: 0.71 ± 0.09 g
  Inhibition of Organ-coefficient: 24.62%
  Organ Coefficient: 0.196 ± 0.03 %
[2]; GENURIN 60 mg/kg, 9 animals
  Bleeding: no. of animals with score 0: 6
  Bleeding: no. of animals with score +: 3
  Bleeding: no. of animals with score ++: 0
  Bleeding: no. of animals with score +++: 0
  Chronic Inflammatory Infiltration: no. of animals with score 0: 5
  Chronic Inflammatory Infiltration: no. of animals with score +: 4
  Chronic Inflammatory Infiltration: no. of animals with score ++: 0
  Chronic Inflammatory Infiltration: no. of animals with score +++: 0
  Congestion: no. of animals with score 0: 4
  Congestion: no. of animals with score +: 5
  Congestion: no. of animals with score ++: 0
  Congestion: no. of animals with score +++: 0
  Edema: no. of animals with score 0: 6
  Edema: no. of animals with score +: 2
  Edema: no. of animals with score ++: 1
  Edema: no. of animals with score +++: 0
  Fibrous Exudation: no. of animals with score 0: 8
  Fibrous Exudation: no. of animals with score +: 1
  Fibrous Exudation: no. of animals with score ++: 0
  Fibrous Exudation: no. of animals with score +++: 0
  Histopathological score of prostatitis, Overall Average X ± SD: 1.83 ± 0.75
  Hyperblastosis: no. of animals with score 0: 8
  Hyperblastosis: no. of animals with score +: 1
  Hyperblastosis: no. of animals with score ++: 0
  Hyperblastosis: no. of animals with score +++: 0
  Inflammatory Infiltration: no. of animals with score 0: 7
  Inflammatory Infiltration: no. of animals with score +: 2
  Inflammatory Infiltration: no. of animals with score ++: 0
  Inflammatory Infiltration: no. of animals with score +++: 0
[2]; [5]
  urine, 1 h Period: 6.2 ± 1.3 mL
  urine, 2 h Period: 7.9 ± 1.9 mL
  urine, 3 h Period: 8.8 ± 1.2 mL

## CC(=O)NC(CSC(=S)NCCc1ccccc1)C(=O)O (centres unmarked) [PEITC-NAC, N-acetylcysteine conjugate of phenethyl isothiocyanate]
GSTP1
  expression of GSTP1 (Western blot): effectively induce
[3]; at terminal (30 days)
  Incidence: 87.5%
  No. of Animals with Tumor: 7
  No. of Animals without Tumor: 1
[3]
  Inhibition of PC-3 tumor growth: 53.3%
[3]; day 7
  Incidence: 75%
  No. of Animals without Tumor: 2
[3]; day 7 after tumor implantation, diet containing 8 μM/g, 8 animals
  No. of Animals with Tumor: 6
[3]; day 10
  Incidence: 75%
  No. of Animals with Tumor: 6
  No. of Animals without Tumor: 2
[3]; day 22
  Incidence: 87.5%
  No. of Animals with Tumor: 7
  No. of Animals without Tumor: 1

## CC(C)(C)NC(=O)[C@H]1CC[C@H]2[C@@H]3CC[C@H]4NC(=O)C=C[C@]4(C)[C@H]3CC[C@]12C [Proscar]
androgen-induced BPH; Proscar 0.5 mg/kg (0.1 mg/rat/day) gavage, one month
  Average Body Weight: 340 ± 30.5 g
androgen-induced BPH; [6]
  Average Volume of Prostate: 1.61 ± 0.16 cm^3
  Average Weight of Prostate: 1.30 ± 0.12 g
  Inhibition of Organ Coefficient: 11.63%
  Organ Coefficient: 0.38 ± 0.05%
androgen-induced BPH; Proscar, 9 animals
  Acinar Density: no. of animals with score 0: 1
  Acinar Density: no. of animals with score +: 2
  Acinar Density: no. of animals with score ++: 6
  Acinar Density: no. of animals with score +++: 0
  Connective tissue proliferation, or papillary hyperplasia: no. of animals with score 0: 8
  Connective tissue proliferation, or papillary hyperplasia: no. of animals with score +: 1
  Connective tissue proliferation, or papillary hyperplasia: no. of animals with score ++: 0
  Connective tissue proliferation, or papillary hyperplasia: no. of animals with score +++: 0
  Enlargement of Lumen of Gland: no. of animals with score 0: 3
  Enlargement of Lumen of Gland: no. of animals with score +: 3
  Enlargement of Lumen of Gland: no. of animals with score ++: 3
  Enlargement of Lumen of Gland: no. of animals with score +++: 0
  Histopathological score of BPH, Average X ± SD: 3.33 ± 1.11
  Secretions of Gland: no. of animals with score 0: 5
  Secretions of Gland: no. of animals with score +: 2
  Secretions of Gland: no. of animals with score ++: 2
  Secretions of Gland: no. of animals with score +++: 0
androgen-induced BPH; Proscar, FIG. 6.3
  lumen of prostatic gland and secretary materials in the lumen, versus untreated BPH tissues (typical slide): reduced
androgen-induced BPH; Proscar, FIG. 6.4
  density of prostatic acinars, versus untreated BPH tissues (typical slide): reduced

## C[C@]12CC[C@@H]3c4ccc(O)cc4CC[C@H]3[C@@H]1CC[C@@H]2O [estradiol, reference compound]
BPH
  Average Weight of Prostate: 0.73 grams
  Organ Coefficient: 0.23%

## N-acetylcysteine conjugate of phenethyl isothiocyanate [PEITC-NAC]
[3]
  Inhibition of PC-3 tumor growth: 53.3%
